The values that follow come from patent US10017459B2, “β-substituted β-amino acids and analogs as chemotherapeutic agents and uses thereof” (Quadriga Biosciences, Inc., priority 2015, dated 2018).

The target of one series is T1, hLAT2 (Homo sapiens, UniProt Q9UHI5).
T1 construct: expressed in transfected cells; host or cells: KB or LLCPK cells, tetracycline/doxycycline-inducible
T1 sequence (Q9UHI5 1-535): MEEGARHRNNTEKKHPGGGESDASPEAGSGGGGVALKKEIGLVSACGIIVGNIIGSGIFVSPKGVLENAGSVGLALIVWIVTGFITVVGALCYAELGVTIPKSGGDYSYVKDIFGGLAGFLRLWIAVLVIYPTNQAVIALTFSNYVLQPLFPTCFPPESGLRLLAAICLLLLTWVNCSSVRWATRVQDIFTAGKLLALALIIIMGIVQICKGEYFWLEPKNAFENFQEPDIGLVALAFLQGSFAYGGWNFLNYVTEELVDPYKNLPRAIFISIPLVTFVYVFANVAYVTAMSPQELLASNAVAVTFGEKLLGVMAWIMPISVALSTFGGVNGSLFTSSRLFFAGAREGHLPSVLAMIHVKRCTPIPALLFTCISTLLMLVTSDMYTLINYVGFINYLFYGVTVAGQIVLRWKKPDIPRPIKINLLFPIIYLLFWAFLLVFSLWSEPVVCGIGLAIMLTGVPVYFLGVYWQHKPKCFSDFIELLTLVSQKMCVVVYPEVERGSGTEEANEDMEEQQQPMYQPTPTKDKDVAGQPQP
T1 sequence (P08195 1-630 isoform P08195-1 partner): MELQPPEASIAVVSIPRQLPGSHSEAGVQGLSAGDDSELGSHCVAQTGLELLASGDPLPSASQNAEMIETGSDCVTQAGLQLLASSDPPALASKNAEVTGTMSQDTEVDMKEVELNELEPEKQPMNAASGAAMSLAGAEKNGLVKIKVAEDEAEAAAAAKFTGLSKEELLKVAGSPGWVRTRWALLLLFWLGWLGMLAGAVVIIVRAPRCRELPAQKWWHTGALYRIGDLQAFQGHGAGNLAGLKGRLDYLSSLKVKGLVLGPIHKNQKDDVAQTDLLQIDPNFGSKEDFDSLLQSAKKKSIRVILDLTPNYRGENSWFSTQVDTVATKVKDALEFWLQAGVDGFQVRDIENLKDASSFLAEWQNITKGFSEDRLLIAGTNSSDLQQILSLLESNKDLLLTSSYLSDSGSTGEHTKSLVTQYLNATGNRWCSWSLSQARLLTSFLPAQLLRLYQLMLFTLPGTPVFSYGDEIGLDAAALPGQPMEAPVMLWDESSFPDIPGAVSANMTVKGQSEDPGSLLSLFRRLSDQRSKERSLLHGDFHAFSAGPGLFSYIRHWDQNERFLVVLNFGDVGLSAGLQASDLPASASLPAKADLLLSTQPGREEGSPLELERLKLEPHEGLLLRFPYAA
The series can be described thus: LAT2 uptake inhibition assay, radiolabeled competition uptake with [3H]-leucine. In kind it is cell-based.

Another series deals with MV411. The series can be described thus: cells. It is filed as cell-based. The settings on record: Homo sapiens, MV4-11, read-out: IC50 (in vitro toxicity).
A further series concerns HS5. The series can be described thus: cells. It is filed as cell-based. Particulars: HS5, read-out: IC50 (in vitro toxicity).
A further series deals with G55. The series can be described thus: cells. It is filed as cell-based. Particulars: read-out: IC50 (in vitro toxicity).
A further series has as its system LN229. The series can be described thus: cells. In kind it is cell-based. Particulars: Homo sapiens, LN-229, read-out: IC50 (in vitro toxicity).
The next series relates to HS27A. The series can be described thus: cells. It is filed as cell-based. Particulars: HS-27A, read-out: IC50 (in vitro toxicity).
In a further series the test system is U251. The series can be described thus: cells. The settings on record: Homo sapiens, U-251, read-out: IC50 (in vitro toxicity). In kind it is cell-based.
In the next series the test system is 42MGBA. The series can be described thus: cells. In kind it is cell-based. The settings on record: read-out: IC50 (in vitro toxicity).
The subject of series [1] is MDA-MB-231. The series can be described thus: cells. In kind it is cell-based. Particulars: Homo sapiens, MDA-MB-231, read-out: IC50 (in vitro toxicity).
The test system of the next series is RPMI8266. The series can be described thus: cells. It is filed as cell-based. Particulars: RPMI8266, read-out: IC50 (in vitro toxicity).
The next series concerns L363. The series can be described thus: cells. In kind it is cell-based. Particulars: Homo sapiens, L-363, read-out: IC50 (in vitro toxicity).
Another series relates to PC3. The series can be described thus: cells. The settings on record: Homo sapiens, PC-3, read-out: IC50 (in vitro toxicity). In kind it is cell-based.
For series [2], the system named is LLCPK cells conditionally expressing hLAT1. The series can be described thus: cells. The settings on record: 0.5 h, read-out: LC50, concentration of test compound at which the percent surviving cells was 50%.
Another series relates to AMO1. The series can be described thus: cells. The settings on record: Homo sapiens, AMO1, read-out: IC50 (in vitro toxicity). In kind it is cell-based.
The next series deals with Raji. The series can be described thus: cells. In kind it is cell-based. Particulars: Homo sapiens, read-out: IC50 (in vitro toxicity).
A further series has as its system DBRTG. The series can be described thus: cells. In kind it is cell-based. Particulars: read-out: IC50 (in vitro toxicity).
The next series deals with KMS34. The series can be described thus: cells. In kind it is cell-based. The settings on record: KMS-34, read-out: IC50 (in vitro toxicity).
A further series relates to U266. The series can be described thus: cells. In kind it is cell-based. The settings on record: Homo sapiens, U-266, read-out: IC50 (in vitro toxicity).
A further series relates to 794. The series can be described thus: cells. It is filed as cell-based. The settings on record: read-out: IC50 (in vitro toxicity).
Another series has as its system MCF7. The series can be described thus: In vitro cytotoxicity, MCF7. Particulars: Homo sapiens, MCF7, read-out: IC50 (in vitro toxicity). It is filed as cell-based.
The subject of series [3] is Human prostate cancer PC3 cells. The settings on record: mouse, in vivo.
A further series relates to D283. The series can be described thus: cells. In kind it is cell-based. Particulars: D283, read-out: IC50 (in vitro toxicity).
The test system of the next series is MM1.S. The series can be described thus: cells. Particulars: Homo sapiens, read-out: IC50 (in vitro toxicity). In kind it is cell-based.
Another series has as its system HCT116. The series can be described thus: In vitro cytotoxicity, HCT116. In kind it is cell-based. Particulars: Homo sapiens, HCT-116, read-out: IC50 (in vitro toxicity).
In the next series the test system is KMS11. The series can be described thus: cells. It is filed as cell-based. Particulars: Homo sapiens, KMS-11, read-out: IC50 (in vitro toxicity).
Another series relates to U251 MG. The series can be described thus: Orthotopic glioblastoma study (Example 84). In kind it is in vivo, mouse. The settings on record: at a dose of 10 mg/kg, IV. The protocol:
The efficacy of compounds provided by the present disclosure was evaluated using an orthotopic luciferase human glioblastoma model—U251 MG. Human glioblastoma cells were intracolonically injected (3×10^5 cells/3 μL) into athymic mice (female, 4-5 weeks-old, nu/un homozygous). Treatment began when the BLI reached a log-phase growth, at about 14 days after injection. Ten mice were assigned to each arm of the study. The mice were dosed with vehicle (IP, once weekly for 4 weeks), compound (5) (5 mg/kg, IV once weekly for 4 weeks), compound (5) (10 mg/kg, IV once weekly for 4 weeks), compound (40) (10 mg/kg, IV once weekly for 4 weeks), or compound (50) (20 mg/kg, IV single dose). The tumor volume was measured using bioluminescence imaging.

The target of a further series is T2, hLAT1 (Homo sapiens, UniProt Q01650).
T2 construct: expressed in transfected cells; host or cells: LLCPK cells, tetracycline/doxycycline-inducible, boosted with sodium butyrate
The series can be described thus: LAT1 uptake inhibition assay, radiolabeled competition uptake with [3H]-Gabapentin. In kind it is cell-based.

Series [4] relates to MDA-MB-231. The series can be described thus: Triple negative breast cancer study, IV dosing. It is filed as in vivo, mouse. Particulars: IV once a week for 8 weeks. The method, then:
The efficacy of compounds provided by the present disclosure was evaluated on a triple negative breast cancer xenograft model—MDA-MB-231. Human triple negative breast cancer cells were implanted into the flank of nude mice and the study was initiated after the volume of the tumors was 150 mm^3. The animals were IV dosed once a week for 8 weeks with either vehicle or 5 mg/kg of compound (5), or 20 mg/kg compound (7). The tumor volume, body weight, white blood cell count, and granulocyte count were determined during the study and 12 days after the final dose was administered.

T2 sequence (Q01650 whole entry, one chain of several): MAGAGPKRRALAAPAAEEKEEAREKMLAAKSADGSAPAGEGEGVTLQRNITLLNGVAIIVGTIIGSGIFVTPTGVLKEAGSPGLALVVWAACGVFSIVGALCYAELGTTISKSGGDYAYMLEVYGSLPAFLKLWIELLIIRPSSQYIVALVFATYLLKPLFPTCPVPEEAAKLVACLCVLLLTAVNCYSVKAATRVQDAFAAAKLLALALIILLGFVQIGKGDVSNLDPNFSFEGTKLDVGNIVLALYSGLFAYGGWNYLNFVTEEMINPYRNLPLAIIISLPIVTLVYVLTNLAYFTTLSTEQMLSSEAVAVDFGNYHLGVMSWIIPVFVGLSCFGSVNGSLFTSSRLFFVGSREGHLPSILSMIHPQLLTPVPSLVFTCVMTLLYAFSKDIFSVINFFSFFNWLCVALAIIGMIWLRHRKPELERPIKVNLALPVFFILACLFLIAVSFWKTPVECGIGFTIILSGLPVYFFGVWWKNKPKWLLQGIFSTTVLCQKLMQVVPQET

A word on the IC50: it is the concentration at which inhibition is half-maximal. As to `COc1ccc(N(CCCl)CCCl)c(C[C@H](N)CC(=O)O)c1` [Compound 51, (3S)-3-amino-4-[2-[bis(2-chloroethyl)amino]-5-methoxy-phenyl]butanoic acid], the IC50 was less than 100 µM on hLAT2; less than 100 µM with MV411; greater than 100 µM in the series with HS5; less than 100 µM with G55; less than 100 µM with LN229; greater than 100 µM in the series on HS27A. The IC50 with U251 was less than 100 µM; in the series on 42MGBA, less than 100 µM; with MDA-MB-231 [1], less than 100 µM; with RPMI8266, greater than 100 µM; in the series on L363, less than 100 µM; in the series on PC3, less than 100 µM. Also, the IC50 in the series on AMO1 is greater than 100 µM; with Raji, less than 100 µM; in the series on DBRTG, less than 100 µM; in the series with KMS34 it was less than 100 µM; in the series with U266 it was less than 100 µM; with 794, less than 100 µM. For the same compound, the IC50 with MCF7 was less than 100 µM; in the series on D283, less than 100 µM; with MM1.S, less than 100 µM; in the series on HCT116, less than 100 µM; in the series on KMS11, greater than 100 µM. The CC50 in [2] is less than 1 µM. Besides, the body weight entry in series [3] is given as “maintained weight”. Moreover, the myelosuppression entry in series [3] is listed as “not dectected”. Also, the tumor growth suppression entry in [3] is “dose-dependent tumor growth suppression”.
On to `CCc1ccc(N(CCCl)CCCl)cc1C[C@H](N)CC(=O)O` [Compound 40, (3S)-3-amino-4-[5-[bis(2-chloroethyl)amino]-2-ethyl-phenyl]butanoic acid], for which the half-maximal inhibitory concentration (IC50) on hLAT2, with MV411, in the series with G55, in the series on LN229, with U251 and with 42MGBA was less than 100 µM throughout. Besides, the IC50 in the series with MDA-MB-231 [1], in the series with PC3, in the series on Raji, in the series on DBRTG, in the series with MCF7 and in the series on D283 was less than 100 µM in each case. The IC50 at hLAT1 and in the series on HCT116 was less than 100 µM each time. Moreover, in series [2], the CC50 is less than 1 µM. Besides, in series [3], the body weight entry is recorded as “maintained weight”. The myelosuppression result in series [3] is reported as “not dectected”. Further, the tumor growth suppression result in series [3] is “dose-dependent tumor growth suppression”. Further, the “glioblastoma tumor growth (bioluminescence imaging)” value in the series on U251 MG is reported as “suppressed glioblastoma tumor growth”.
Regarding `Cc1ccc(N(CCCl)CCCl)c(C[C@H](N)CC(=O)O)c1` [Compound 50, (3S)-3-amino-4-[2-[bis(2-chloroethyl)amino]-5-methyl-phenyl]butanoic acid], the IC50 at hLAT2, in the series with MV411, with G55, in the series on LN229, with U251 and in the series with 42MGBA was less than 100 µM each time. Besides, the IC50 in the series on MDA-MB-231 [1], with PC3, with Raji, in the series on DBRTG, in the series with 794 and in the series on MCF7 was less than 100 µM throughout. The IC50 with D283 and in the series on HCT116 was less than 100 µM in each case. Further, the “glioblastoma tumor growth (bioluminescence imaging)” value in the series on U251 MG is on record as “suppressed glioblastoma tumor growth”.
With `COc1ccc(N(CCCl)CCCl)cc1C[C@H](N)CC(=O)O` [Compound 7, (3S)-3-Amino-4-[5-[bis(2-chloroethyl)amino]-2-methoxy-phenyl]butanoic Acid], the IC50 at hLAT2 was less than 100 µM; with MV411 it was less than 100 µM; in the series with HS5 it was greater than 100 µM; with G55, less than 100 µM; in the series with LN229 it was less than 100 µM; in the series on HS27A, greater than 100 µM. Further, the IC50 is less than 100 µM with U251; less than 100 µM in the series with 42MGBA; less than 100 µM with MDA-MB-231 [1]; greater than 100 µM in the series on RPMI8266; greater than 100 µM in the series on L363; less than 100 µM in the series on PC3. The IC50 in the series on AMO1 was greater than 100 µM; in the series on Raji it was less than 100 µM; with DBRTG, less than 100 µM; in the series with KMS34 it was greater than 100 µM; in the series on U266 it was less than 100 µM; in the series with 794, less than 100 µM. In addition, the IC50 in the series with D283 is less than 100 µM; at hLAT1, less than 100 µM; in the series on MM1.S, less than 100 µM; in the series on KMS11 it was greater than 100 µM. Also, in series [2], the CC50 is less than 1 µM. For the same compound, the body weight entry (in the series with MDA-MB-231 [4]; in [3]) was “maintained weight” each time. Moreover, the myelosuppression entry (in the series with MDA-MB-231 [4]; in series [3]) was “not dectected” each time. For the same compound, the tumor growth suppression result in the series with MDA-MB-231 [4] (nude mice, 5 mg/kg compound (5), 20 mg/kg compound (7)) is “dose-dependent tumor growth suppression”; in [3], “dose-dependent tumor growth suppression”.
